System: U87MG glioblastoma cells
Assay: Cell viability imaging, extracts with various THC to CBD ratios
Assay type: cell-based, human
Settings: extracts with various THC to CBD ratio, adjusted to 5 μM THC, 24 hours, 96-well; FIG. 6
Procedure: Cells were harvested three days before exposure and seeded (about 50,000-200,000 cells/well) into a 24-well microplate. The medium was replaced in respective culture medium containing 0.5% FBS, and vehicle (DMSO) or cannabis extracts (1-10 μg/ml) were added to the medium for 24-48 hours in duplicates.
The effect of cannabinoid compounds on cell viability was measured using high-content screening analysis. For example, differentiation of subpopulations of cells within the same well was analysed by distinguishing: live versus necrotic cells, early apoptotic cells and late apoptotic cells.
Cells were imaged in ImageXpress micro (see FIG. 2), and analyzed using MetaXpress and the Cell Cycle module.
Reference is now made to FIG. 6 showing images of glioblastoma cell lines treated with selected cannabis extracts comprising various THC to CBD ratio. In this study, 10,000 U87MG glioblastoma cells were plated into a 96-well microplate and treated with vehicle (DMSO) or cannabis extracts. It is noted that the extracts were delectated to reach 5 μM THC. Cells were imaged after 24 hours using the ImageXpress micro.

SMILES: C=C(C)[C@@H]1CCC(C)=C[C@H]1c1c(O)cc(CCCCC)cc1O [CBD, cannabidiol]
- U87MG glioblastoma cells viability: plays a role in reducing U87MG glioblastoma cells viability
